Measured values reported in patent EP1196154B1, “INHIBITION OF RENAL UPTAKE OF RADIOMOLECULES WITH A COMBINATION OF LYSINE AND ARGININE” (MALLINCKRODT, INC., priority 1999, dated 2001).
Several values for one entry are separate records, joined by “and”; a condition that tells them apart may be missing. Equal entries are not always repeated.

Tests used:
kidneys [1] = test: Renal uptake of [^111In-DTPA-D-Phe^1]octreotide in rats with amino acid administration; assay type: in vivo; settings: for inhibition at 400 mg/kg: Rattus norvegicus
Description: Furthermore, it has been described by De Jong et al. in J. Nucl. Med 37(8): 1388-1392 (1996) that uptake in the rat kidneys of the [^111In-DTPA-D-Phe^1]octreotide can be inhibited by 50% by intravenous administration of the amino acid L-lysine alone (400 mg/kg). In a further article by Bernard et al. in J. Nucl.
L-arginine alone gave a reduction of 20-30% at an equimolar dose. In human studies 15, 21 and 40% reduction of kidney uptake of [^111In-DTPA-D-Phe^1]octreotide was reached using a dose of 25, 50 and 75 g L-lysine, respectively. […] Hyperkalemia may result in acute and life-threatening cardiotoxicity.

kidneys [2] = settings: Bernard et al.; cited from earlier work
[3] = Vomiting and symptoms in patients during amino acid infusion; assay type: in vivo, humans
Description: 26 patients received 1 to 5 therapeutic doses of 1-10 GBq ^90Y-DOTA,Tyr^3-octreotide, with concomitant infusion of a 2030 mL cocktail of various amino acids in 4 hours, starting 30 min. before the administration of the radiopharmaceutical (see MATERIALS, paragraph B. for exact details). In 11 of these 26 patients (42%), [being 20 of 84 treatments (24%)] one or more episodes of vomiting occurred, up to 30 episodes of severe vomiting per treatment.
In one of these 11 patients the vomiting was so severe during the 2 treatments with the above described regimen, that it was decided to use an infusion with 50 g of L-lysine instead of the infusion with the cocktail of various amino acids concomitant with their 3rd and 4th therapy with ^90Y-DOTA,Tyr^3-octreotide.
8 patients received multiple therapeutic doses of 7-11 GBq ^111In-pentetreotide. All received once a concomitant infusion of a 2030 mL cocktail of various amino acids in 4 hours, starting 30 min. before the administration of the radiopharmaceutical (see MATERIALS, paragraph B. for exact details). In 4 of these 8 patients (50%) vomiting occurred.
In these same 8 patients only 3 episodes […] of vomiting occurred during 22 treatments with 7-11 GBq ^111In-pentetreotide while they received 25 or 50 grams of L-lysine in 500 to 2000 mL (see MATERIALS, paragraph C. for exact details) over 4 hours, starting 30 min. before administration of the radiopharmaceutical, as concomitant infusions.
In an experiment of the invention 11 patients received an infusion over 4 hours of a solution containing 25 g L-lysine and 25 g L-arginine in 1000 mL (Lys/Arg; see MATERIALS, paragraph A. for exact formulation). Thirty min. after the start of the infusion they received a diagnostic dose of 220 MBq ^111Inpentetreotide. Ten patients had no symptoms during the infusion, in particular no vomiting. […] During the Lys/Arg infusion they vomited twice.
Five patients received the Lys/Arg infusion in the same manner as described above, but they received a therapeutic dose of 1850 MBq [^177Lu-DOTA,Tyr^3]octreotate, 30 min. after the start of the Lys/Arg infusion. None of these 5 patients had any symptoms at all, in particular no vomiting.
Until now the Lys/Arg infusion, 1000 mL in 4 hours concomitant with therapeutic doses of radioactive labelled peptides, has been administered to more than 30 patients, in total more than 80 occasions. Vomiting occurs in less than 5% of the occasions, and if it occurs it is most probably due to other causes.

kidneys [4] = test: Kidney uptake of ^111In-pentetreotide in patients with amino acid infusion (planar scintigraphy and dosimetry); assay type: in vivo, humans; settings: for reduction of kidney uptake of [^111In-DTPA-D-Phe^1]octreotide: human studies
Description: A 1000 mL infusion containing 25 g L-lysine and 25 g L-arginine (Lys/Arg; see MATERIALS, paragraph A. for exact formulation) was administered intravenously to patients during 4 hours, starting 30 minutes prior to administration of the radioligand. One radioligand was [^111In-DTPA-D-Phe^1]octreotide (^111In-pentetreotide, OctreoScan®, Mallinckrodt Medical, Petten, The Netherlands) in a diagnostic amount of 220 MBq (9 patients). Each patient was also investigated on a separate occasion with 220 MBq ^111In-pentetreotide, but without any infusion. The other radioligand was [^177Lu-DOTA,Tyr^3]octreotate in a therapeutic amount of 1850 MBq (5 patients). Each patient was also investigated on a separate occasion with 1850 MBq [^177Lu-DOTA,Tyr^3]-octreotate, but without any infusion. The control experiment (5 patients) consisted of infusion of 1000 mL neutral infusion fluid without the amino acids (NaCl 0.45% plus Glucose 2.5%)over 4 hours, starting 30 min. prior to the injection of 220 MBq ^111In-pentetreotide.
24 Hours post infusion the uptake of the radioligand in the kidneys, spleen and liver was measured using planar scintigraphy and dosimetry, and for each patient the ratio between uptake in these organs during infusion with Lys/Arg and without Lys/Arg was calculated (Figures 1, 2 and 3).
At least 5 patients received one of the following amino acid preparations: • 1. AA (2030 mL cocktail of various amino acids; see MATERIALS, paragraph B, for the source and details) • 2. 25 g L-lysine in 500 mL (see MATERIALS, paragraph C, for exact formulation) • 3. 50 g lysine in 2000 mL (see MATERIALS, paragraph C, for exact formulation) • 4. 75 g lysine in 1500 mL (see MATERIALS, paragraph C, for exact formulation) • 5. 25 g L-lysine and 25 g L-arginine in 1000 mL (invention), (Lys/Arg; see MATERIALS, paragraph A. for exact formulation).
The preparations were given intravenously over 4 hours starting 30 minutes before treatment with the radioligand started. The radioligand was ^111Inpentetreotide, either in a diagnostic amount of 220 MBq, or in a therapeutic amount, 7 - 11 GBq. Each patient was his or her own control. The control consisted of treatment with the radioligand but without an amino acid preparation.
At 24 and 48 hours post infusion the ratio between tissue uptake in the left kidney in patients receiving an amino acid composition and the controls was determined by planar scintigraphy and dosimetry.

[5] = Osmolarity of infusion fluids; assay type: physicochemical; settings: infusion fluid as prepared
[6] = Serum potassium level in patients during amino acid infusion; assay type: in vivo, humans
Description: In an experiment of the invention 11 patients received an infusion over 4 hours of a solution containing 25 g L-lysine and 25 g L-arginine in 1000 mL (Lys/Arg; see MATERIALS, paragraph A. for exact formulation). The potassium level of these patients was measured in serum at t=0 hours and after 0.5, 1, 2, 4 and 5 hours.
As a control 6 patients received 75 g L-lysine in 1500 mL during 4 hours (see MATERIALS, paragraph C. for exact formulation).

NCCCC[C@@H](N)C(=O)O [D-lysine]
inhibition at 400 mg/kg (kidneys [1]): 50%
reducing the rat renal uptake of [^111In-DTPA-D-Phe^1]octreotide and ^90Y-DOTA,Tyr^3-octreotide (kidneys [2]): capable of reducing

NCCCC[C@H](N)C(=O)O [L-lysine]
episodes of vomiting during treatments ([3]; 25 or 50 grams in 500 to 2000 mL over 4 hours, 7-11 GBq ^111In-pentetreotide, 3 episodes during 22 treatments, 8 patients): 9%
tolerability / toxicity ([3]; human studies, doses of 25 and 50 g): well tolerated without any toxicity noted
vomiting (conclusion from EXAMPLES 4, 5 and 6) ([3]; infusion over 4 hours): seldomly observed
episodes of vomiting ([3]; one patient, 50 g, 3rd therapy with ^90Y-DOTA,Tyr^3-octreotide): one
vomiting ([3]; one patient, 50 g, 4th therapy with ^90Y-DOTA,Tyr^3-octreotide): no vomiting at all
inhibition at 400 mg/kg (kidneys [1]): 50%
[^111In-DTPA-D-Phe^1]octreotide uptake reduction in the left kidney, rank among amino acid preparations (Figure 4) (kidneys [4]; 24 and 48 hours post infusion, 75 g L-lysine, 25 g L-lysine plus 25 g L-arginine): highest uptake reduction
reduction of kidney uptake of [^111In-DTPA-D-Phe^1]octreotide (kidneys [4]; dose of 25 g): 15%
reduction of kidney uptake of [^111In-DTPA-D-Phe^1]octreotide (kidneys [4]; dose of 50 g): 21%
reduction of kidney uptake of [^111In-DTPA-D-Phe^1]octreotide (kidneys [4]; dose of 75 g): 40%
osmolarity [5]: ca. 400 mosmol/L
hyperkalemia ([6]; 75 g L-lysine (Table 2), 25 g L-lysine plus 25 g L-arginine (Table 1)): severe hyperkalemia
patients with a maximum potassium level above the critical value of 6.0 mmol/L ([6]; 75 g in 1500 mL): 3 out of 6
maximum potassium (K) level in serum ([6]; 75 g in 1500 mL over 4 hours, single patients 12-17): 5.2 mmol/L and 6.8 mmol/L and 6.7 mmol/L and 5.4 mmol/L and 5.0 mmol/L and 6.3 mmol/L
patients with severe hyperkalemia ([6]; humans, total dose of 75 g): 50%

N=C(N)NCCC[C@H](N)C(=O)O [L-arginine]
reduction of renal uptake of [^111In-DTPA-D-Phe^1]octreotide in rats (kidneys [1]; alone, at an equimolar dose (to lysine 400 mg/kg)): 20-30%

Lys/Arg
occasions on which vomiting occurs ([3]; human, in vivo): less than 5%
patients who suffered from vomiting ([3]; human, in vivo): none
tolerability on 4 later occasions in the same patient ([3]; human, in vivo): without any problems
treatments in which vomiting occurred ([3]; human, in vivo): 8%
patients having a maximum potassium value of 6.0 mmol/L ([6]; human, in vivo): one out of eleven
